The values below come from paper PMC5779714, “Metallochaperone UreG serves as a new target for design of urease inhibitor: A novel strategy for development of antimicrobials” (PLoS Biology, 2018).

Where “and” joins values, the source holds several entries; their conditions need not be identical. Identical values can stand only once. Like-named read-outs stand apart in the source and are kept apart here.

For orientation: stoichiometry N means a count of units in the complex or per binding partner.

For data set [1], the system named is urease. The data set can be described thus: Phenol-hypochlorite urease assay, lysate of E. coli with urease gene cluster excluding ureG (pHP8080ΔG) supplemented with metal-treated UreG.
Data set [2] concerns the target T1, UreG (Helicobacter pylori, UniProt Q09066). Nature of the data set: biochemical. It counts as biochemical, H. pylori. As to the method: (§1) A Malachite Green Phosphate Assay Kit (Abcam) was utilized to quantify the hydrolysis of GTP by UreG under various conditions. […] GTPase activity of UreG was triggered through the addition of 10 mM KHCO3, after which the reaction was incubated at 37°C for 30 min; then, the free phosphate from hydrolysis of GTP was determined. […] To eliminate the potential effect of small compounds on malachite green assay, the assay included a subtraction of the absorbance of reaction with the same amounts of compounds but without UreG enzyme for each reading.

On the set-up of data set [3]: method as in PMID 22179820. Particulars: cited from earlier work.
In data set [4] the target is urease from jack bean, P. mirabilis, and K. aerogenes. Particulars: competitive inhibitor; cited from earlier work.
For data set [5], the system named is urease.
Target sequence in this assay (P17088 whole entry): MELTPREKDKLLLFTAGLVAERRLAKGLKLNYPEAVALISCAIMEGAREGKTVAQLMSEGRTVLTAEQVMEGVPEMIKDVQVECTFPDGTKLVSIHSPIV
Target sequence in this assay (P17087 whole entry, further chain): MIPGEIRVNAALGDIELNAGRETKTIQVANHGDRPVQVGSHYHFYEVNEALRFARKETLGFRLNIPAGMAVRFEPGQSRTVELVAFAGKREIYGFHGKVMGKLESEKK
Target sequence in this assay (P17086 whole entry, further chain): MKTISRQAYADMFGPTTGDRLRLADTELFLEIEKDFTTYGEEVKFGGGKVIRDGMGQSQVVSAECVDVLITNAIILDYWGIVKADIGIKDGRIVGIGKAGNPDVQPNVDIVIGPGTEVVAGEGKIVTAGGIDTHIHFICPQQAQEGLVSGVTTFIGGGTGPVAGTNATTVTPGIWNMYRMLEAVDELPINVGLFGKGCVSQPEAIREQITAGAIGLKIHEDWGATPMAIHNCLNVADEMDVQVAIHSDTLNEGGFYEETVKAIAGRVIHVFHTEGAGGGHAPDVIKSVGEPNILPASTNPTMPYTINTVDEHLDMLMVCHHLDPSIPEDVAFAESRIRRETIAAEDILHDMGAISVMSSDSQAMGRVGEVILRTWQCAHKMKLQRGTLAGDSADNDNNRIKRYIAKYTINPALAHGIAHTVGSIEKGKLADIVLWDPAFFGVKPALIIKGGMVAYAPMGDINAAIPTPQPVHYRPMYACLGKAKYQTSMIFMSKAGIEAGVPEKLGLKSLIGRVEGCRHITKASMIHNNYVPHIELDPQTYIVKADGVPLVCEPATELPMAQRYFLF
Data set [6] has as its target T2, urease (Proteus mirabilis, UniProt P17086+P17087+P17088).
T2 construct: endogenous in cells
It counts as biochemical.

For data set [7], the target named is T1, UreG. As for the experimental part:
as §1
(PNG) Click here for additional data file.

Data set [8] deals with urease. The source holds these as a separate data set.
For data set [9], the system named is urease. The source holds these as a separate data set.
The next data set concerns H. pylori. The data set can be described thus: Growth of H. pylori in neutral and acidic brucella broth (OD600). The class given is cell-based.
For data set [10], the target named is T3, H. pylori urease (Helicobacter pylori, UniProt P14916+P69996). Nature of the data set: cell-based. It counts as cell-based.
Target sequence in this assay (P14916 whole entry, looked up): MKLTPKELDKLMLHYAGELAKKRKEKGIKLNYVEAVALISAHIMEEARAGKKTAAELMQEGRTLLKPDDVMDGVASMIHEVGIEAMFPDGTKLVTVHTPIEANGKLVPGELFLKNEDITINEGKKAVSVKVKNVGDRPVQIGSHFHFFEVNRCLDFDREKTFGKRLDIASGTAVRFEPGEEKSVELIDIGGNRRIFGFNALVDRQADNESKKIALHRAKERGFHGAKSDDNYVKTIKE
Target sequence in this assay (P69996 whole entry, looked up): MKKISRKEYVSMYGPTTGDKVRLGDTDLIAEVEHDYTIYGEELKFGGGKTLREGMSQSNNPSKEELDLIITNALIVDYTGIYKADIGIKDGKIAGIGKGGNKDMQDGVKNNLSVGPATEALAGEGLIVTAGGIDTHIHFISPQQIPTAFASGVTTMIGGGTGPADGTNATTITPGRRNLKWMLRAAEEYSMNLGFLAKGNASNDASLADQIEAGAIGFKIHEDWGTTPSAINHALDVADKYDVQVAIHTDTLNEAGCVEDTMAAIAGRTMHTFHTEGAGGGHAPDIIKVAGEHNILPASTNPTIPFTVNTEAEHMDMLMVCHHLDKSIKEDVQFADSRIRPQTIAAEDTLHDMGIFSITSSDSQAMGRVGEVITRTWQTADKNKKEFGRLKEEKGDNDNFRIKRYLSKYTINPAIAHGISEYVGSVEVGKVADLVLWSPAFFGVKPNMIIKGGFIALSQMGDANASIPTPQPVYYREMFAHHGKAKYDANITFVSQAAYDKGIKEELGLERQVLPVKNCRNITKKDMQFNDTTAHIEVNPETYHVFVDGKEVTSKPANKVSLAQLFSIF
Data set [11] has as its target T3, H. pylori urease. The class given is biochemical. On the set-up: endogenous in cells; host or cells: H. pylori strain 26695 or a clinical isolate.
Target sequence in this assay (P69996 whole entry): as the sequence (P69996 whole entry, looked up) above
Target sequence in this assay (P14916 whole entry): as the sequence (P14916 whole entry, looked up) above
Data set [12] relates to urease. This is another data set of the same source.
Data set [13] has as its system urease. The source holds these as a separate data set.
The test system of data set [14] is urease. The source holds these as a separate data set.
The target of data set [15] is T4, urease (Pseudomonas aeruginosa, UniProt Q9HUU5+Q9HUU6+Q9HUU8).
T4 construct: endogenous in cells
Nature of the data set: Urease activity of extracted P. aeruginosa urease (in vitro). The class given is biochemical.

The subject of data set [16] is urease. This is another data set of the same source.
Target sequence in this assay (Q9HUU5 whole entry): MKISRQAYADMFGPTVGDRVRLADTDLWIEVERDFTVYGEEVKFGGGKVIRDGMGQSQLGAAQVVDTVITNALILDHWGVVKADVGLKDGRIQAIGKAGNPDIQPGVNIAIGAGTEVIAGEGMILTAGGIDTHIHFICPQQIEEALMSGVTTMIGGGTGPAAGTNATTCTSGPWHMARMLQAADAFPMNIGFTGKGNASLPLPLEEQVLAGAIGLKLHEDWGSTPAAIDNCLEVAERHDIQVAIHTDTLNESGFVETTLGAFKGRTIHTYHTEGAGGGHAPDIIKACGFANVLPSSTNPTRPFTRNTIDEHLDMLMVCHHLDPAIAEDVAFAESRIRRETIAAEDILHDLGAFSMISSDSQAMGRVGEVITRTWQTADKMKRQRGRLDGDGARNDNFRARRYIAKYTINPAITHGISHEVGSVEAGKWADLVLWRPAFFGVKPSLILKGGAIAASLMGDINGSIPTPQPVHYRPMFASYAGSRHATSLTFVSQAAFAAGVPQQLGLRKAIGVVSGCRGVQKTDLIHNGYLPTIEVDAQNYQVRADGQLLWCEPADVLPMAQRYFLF
Target sequence in this assay (Q9HUU6 whole entry, further chain): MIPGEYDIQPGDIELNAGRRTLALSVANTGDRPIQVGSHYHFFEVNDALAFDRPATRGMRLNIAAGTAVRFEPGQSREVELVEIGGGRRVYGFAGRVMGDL
Target sequence in this assay (Q9HUU8 whole entry, further chain): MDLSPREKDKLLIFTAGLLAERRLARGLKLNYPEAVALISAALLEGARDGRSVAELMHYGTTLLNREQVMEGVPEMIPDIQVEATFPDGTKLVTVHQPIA
In data set [17] the test system is urease. The source holds these as a separate data set.
In data set [18] the test system is AGS cells exposed to H. pylori. The data set can be described thus: Cell infection model: AGS cells exposed to H. pylori pre-cultured with inhibitors. It counts as cell-based, human. The conditions noted are these: H. pylori pre-cultured with 10 μM inhibitor 24 h; MOI 20; 24 h infection; Hp alone 28.8%.
Data set [19] has as its system AGS cells with H. pylori infection. The data set can be described thus: AGS cells with H. pylori infection, inhibitors administrated to the AGS cells (S20 Fig). The class given is cell-based, human. The conditions noted are these: 10 μM administrated to AGS cells with H. pylori infection. An excerpt: As expected, low viability of AGS with the supplement of cmpd4 and cmpd8 was observed due to the toxicity of small compounds to mammalian cells. […] (PNG) Click here for additional data file.

Data set [20] concerns the molecule itself. Nature of the data set: SEC; Superdex 200 10/300 GL; Ni-loaded UreG (UreG with NiSO4 1x, GTP 10x, MgSO4 1 mM) with 1 mM KHCO3; run with or without two molar equivalents of Bi(III) (as BiNTA), which lowered the dimer peak and gave a high molecular weight oligomer. (SEC sorts molecules by how far they enter the pores of the column.)
Data set [21] deals with the molecule itself. Nature of the data set: SEC; gel filtration of apo-UreE alone, with or without three molar equivalents of Bi(III) (little effect on the dimer).
Setting [22] is: increasing amounts of CBS during bacterial growth.

T4 sequence (Q9HUU6 whole entry): as the sequence (Q9HUU6 whole entry, further chain) above
T4 sequence (Q9HUU5 whole entry): as the sequence (Q9HUU5 whole entry) above
T4 sequence (Q9HUU8 whole entry): as the sequence (Q9HUU8 whole entry, further chain) above
T2 sequence (P17087 whole entry): as the sequence (P17087 whole entry, further chain) above
T2 sequence (P17088 whole entry): as the sequence (P17088 whole entry) above
T2 sequence (P17086 whole entry): as the sequence (P17086 whole entry, further chain) above

With `[Bi+3]` [Bi(III), reference compound], the “Normalized urease activity(%)” value in the data set with urease [1] (Ni-UreG+Bix1, incubation 40 min) stood at 47.6%; in the data set with urease [1] (Ni-UreG+Bix2, incubation 40 min), 9.3%; in the data set with urease [1] (Ni-UreG+Bix3, incubation 40 min), 5.8%. Also, the results for the “Normalized GTPase activity(%)” value at UreG [2] (Ni-UreG+Bix1), at UreG [2] (Ni-UreG+Bix2) and at UreG [2] (Ni-UreG+Bix3) were 29.0%, 0.8% and 1.7%, respectively. Besides, at UreG [2] (further addition of Bi(III) to Ni-UreG), the “inhibition of GTPase enzyme activity” value is recorded as “complete inhibition”.
Consider `O=C([O-])CN(CC(=O)[O-])CC(=O)[O-].[Bi+3]` [BiNTA, Bi nitrilotriacetic acid], for which the “log Ka of Bi-NTA” value in data set [3] is 17.55.
Consider `OB(O)O` [boric acid], for which, in data set [4], the Ki result is “mM levels”.
As for colloidal bismuth subcitrate [CBS], the “Normalized urease activity(%)” value is 42.0322% in the data set on urease [5] (log(CBS[μM]) 1.29073); 39.1227% with urease [5] (log(CBS[μM]) 1.59176); 25.3581% in the data set with urease [5] (log(CBS[μM]) 1.89279); 25.0224% in the data set on urease [5] (log(CBS[μM]) 2.19382); 92.4528% in the data set on urease [8] (log(CBS[μM]) 0.176091); 74.5283% in the data set on urease [8] (log(CBS[μM]) 0.477121). In addition, the “Normalized urease activity(%)” value in the data set on urease [8] (log(CBS[μM]) 1.39794) was found to be 41.5094%; in the data set on urease [8] (log(CBS[μM]) 3), 16.0377%; in the data set with urease [8] (log(CBS[μM]) 3.30103) it was 13.2075%; in the data set on urease [8] (log(CBS[μM]) 3.60206), 20.7547%; at H. pylori urease [10] (log(CBS[μM]) 0), 94.7245%; at H. pylori urease [10] (log(CBS[μM]) 0.30103), 89.449%. The “Normalized urease activity(%)” value is 57.604% on H. pylori urease [10] (log(CBS[μM]) 0.69897); 46.6188% on H. pylori urease [10] (log(CBS[μM]) 0.845098); 35.6336% at H. pylori urease [10] (log(CBS[μM]) 1); 22.938% on H. pylori urease [10] (log(CBS[μM]) 1.17609); 10.2424% on H. pylori urease [10] (log(CBS[μM]) 1.30103); 10.165% at H. pylori urease [10] (log(CBS[μM]) 1.39794). Besides, the “Normalized urease activity(%)” value is 10.0876% at H. pylori urease [10] (log(CBS[μM]) 1.47712); 63.4% in the data set on urease [14] (CBS 20 μM); 37.9% with urease [14] (CBS 50 μM); 37.9% in the data set with urease [14] (CBS 100 μM); 25.6% with urease [14] (CBS 200 μM); 76.4151% in the data set on urease [16] (log(CBS[μM]) 0.69897). Besides, the “Normalized urease activity(%)” value with urease [16] (log(CBS[μM]) 1) is reported as 79.2453%; in the data set with urease [16] (log(CBS[μM]) 1.30103) it was 68.1604%; in the data set with urease [16] (log(CBS[μM]) 1.79588) it was 36.5566%. The “Normalized urease activity(%) (in vitro)” value at urease [6] (CBS 2.0 μM) was determined as 105.5%; on urease [6] (CBS 5.0 μM) it was 122.1%; at urease [6] (CBS 10.0 μM), 103.7%; at urease [6] (CBS 20.0 μM) it was 121.2%; on urease [6] (CBS 50.0 μM), 96.7%; at urease [6] (CBS 100.0 μM), 105.5%. Besides, the “Normalized urease activity(%) (in vitro)” value on urease [6] (CBS 200.0 μM) is listed as 111.5%; in the data set with urease [9] (CBS 25.0 μM), 109.8%; in the data set on urease [9] (CBS 50.0 μM), 113.4%; in the data set on urease [9] (CBS 100.0 μM), 105.1%; in the data set with urease [9] (CBS 200.0 μM), 103.9%; on H. pylori urease [11] (CBS 2.0 μM), 102.1%. The “Normalized urease activity(%) (in vitro)” value on H. pylori urease [11] (CBS 5.0 μM) amounted to 93.2%; at H. pylori urease [11] (CBS 10.0 μM), 103.8%; at H. pylori urease [11] (CBS 20.0 μM) it was 86.7%; at H. pylori urease [11] (CBS 30.0 μM), 92.9%; at H. pylori urease [11] (CBS 50.0 μM) it was 109.1%; on H. pylori urease [11] (CBS 100.0 μM), 102.9%. For the same molecule, the “Normalized urease activity(%) (in vitro)” value was 94.9% at H. pylori urease [11] (CBS 200.0 μM); 87.7% in the data set with urease [12] (CBS 2.0 μM); 84.1% in the data set with urease [12] (CBS 5.0 μM); 87.2% in the data set with urease [12] (CBS 10.0 μM); 91.4% with urease [12] (CBS 50.0 μM); 87.4% with urease [12] (CBS 100.0 μM). The “Normalized urease activity(%) (in vitro)” value came out at 86.8% in the data set with urease [12] (CBS 200.0 μM); 111.2% in the data set on urease [13] (CBS 25.0 μM); 127.8% with urease [13] (CBS 50.0 μM); 125.1% in the data set on urease [13] (CBS 100.0 μM); 113.5% in the data set on urease [13] (CBS 200.0 μM); 102.2% on urease [15] (CBS 2.0 μM). In addition, the “Normalized urease activity(%) (in vitro)” value is given as 93.5% on urease [15] (CBS 5.0 μM); 100.7% on urease [15] (CBS 10.0 μM); 99.1% at urease [15] (CBS 20.0 μM); 95.8% on urease [15] (CBS 50.0 μM); 101.3% at urease [15] (CBS 100.0 μM); 99.8% on urease [15] (CBS 200.0 μM). In addition, the “Normalized urease activity(%) (in vitro)” value came out at 117.5% with urease [17] (CBS 2.0 μM); 100.8% in the data set with urease [17] (CBS 5.0 μM); 95.4% in the data set with urease [17] (CBS 10.0 μM); 96.5% with urease [17] (CBS 20.0 μM); 100.0% with urease [17] (CBS 50.0 μM); 106.8% in the data set with urease [17] (CBS 100.0 μM). Further, the “Normalized urease activity(%) (in vitro)” value in the data set with urease [17] (CBS 200.0 μM) is recorded as 98.8%. Moreover, the “Normalized GTPase activity(%)” value on UreG [7] (CBS 20 μM) was determined as 50.4%; at UreG [7] (CBS 50 μM), 22.6%; at UreG [7] (CBS 100 μM), 35.8%; at UreG [7] (CBS 200 μM) it was 20.4%. For the same molecule, the “GTPase activity compared with that without CBS treatment” value at UreG [7] (setting [22]) was “approximately 20%”. Besides, the “Normalized urease activity(%) (in vivo)” value in the data set with urease [8] (CBS 1.5 μM) is 92.5%; in the data set on urease [8] (CBS 3.0 μM), 74.5%; in the data set on urease [8] (CBS 6.0 μM) it was 62.3%; in the data set on urease [8] (CBS 12.0 μM) it was 64.2%; in the data set with urease [8] (CBS 25.0 μM), 41.5%; at H. pylori urease [10] (CBS 2.0 μM) it was 89.4%. Further, the “Normalized urease activity(%) (in vivo)” value is 57.6% at H. pylori urease [10] (CBS 5.0 μM), 35.6% on H. pylori urease [10] (CBS 10.0 μM) and 10.2% on H. pylori urease [10] (CBS 20.0 μM). The “OD600(pH5)” value in the data set on H. pylori (acidic brucella broth pH 5.0, 24 h, control 0.93) was 0.23 and 0.239. Besides, in the data set with H. pylori (neutral medium, 24 h, control 0.18), the “OD600 (pH7)” value was 0.127. For the same molecule, the “drop in urease activity” value on H. pylori urease [10] (CBS 20 μM in culture medium) was “ca. 90%”. The “inhibitory effect on extracted H. pylori urease” value against H. pylori urease [11] (CBS up to 400 μM) was “little inhibitory effect”. Moreover, in the data set on urease [14] (setting [22]), the “ureolytic activity compared with that without CBS treatment” value was “approximately 20%”. Moreover, the “Normalized cell survival (%)” value is 65.8% ± 9.9% and 65.7658% in [18]; 78.3784% in data set [19]. Moreover, in data set [19], the “Ammonia in medium” value is 0.6839 mM.

B1: Helicobacter pylori urease accessory protein UreG (natural protein)
chain: MVKIGVCGPVGSGKTALIEALTRHMSKDYDMAVITNDIYTKEDAEFMCKNSVMPRERIIGVETGGCPHTAIREDASMNLEAVEEMHGRFPNLELLLIESGGDNLSATFNPELADFTIFVIDVAEGDKIPRKGGPGITRSDLLVINKIDLAPYVGADLKVMERDSKKMRGEKPFIFTNIRAKEGLDDVIAWIKRNALLED
notes: also called HpUreG; apo-UreG; source: E. coli BL21(DE3), purified (HisTrap Ni-NTA, thrombin cleavage, EDTA, Superdex 75)
With B1, the “stoichiometry N” value in [20] stood at 2.

B2: Helicobacter pylori urease accessory protein UreE (natural protein)
chain: MIIERLVGNLRDLNPLDFSVDHVDLEWFETRKKIARFKTRQGKDIAIRLKDAPKLGLSQGDILFKEEKEIIAVNILDSEVIHIQAKSVAEVAKICYEIGNRHAALYYGESQFEFKTPFEKPTLALLEKLGVQNRVLSSKLDSKERLTVSMPHSEPNFKVSLASDFKVVVK
notes: also called apo-UreE
Regarding B2, the “stoichiometry N” value in [21] is 2.
